Test results as given in ChEMBL document CHEMBL5230115, “Bioactive pyrrole-based compounds with target selectivity” (Eur J Med Chem, 2020).
pIC50: −log10 of the molar value. Each block holds one compound with its values, some of them ahead of it.

How the values were obtained:
[1] = system: A549; assay: Antiproliferative activity against human A549 cells assessed as cell growth inhibition measured after 24 hrs by MTT assay; format: functional, cell-based; conditions: A549, 24 h
[2] = target: Mitogen-activated protein kinase 3 (Homo sapiens) (UniProt P27361); assay: Inhibition of ERK1 (unknown origin) at 25 nM relative to control
Sequence of Mitogen-activated protein kinase 3 (Homo sapiens) (P27361 whole entry): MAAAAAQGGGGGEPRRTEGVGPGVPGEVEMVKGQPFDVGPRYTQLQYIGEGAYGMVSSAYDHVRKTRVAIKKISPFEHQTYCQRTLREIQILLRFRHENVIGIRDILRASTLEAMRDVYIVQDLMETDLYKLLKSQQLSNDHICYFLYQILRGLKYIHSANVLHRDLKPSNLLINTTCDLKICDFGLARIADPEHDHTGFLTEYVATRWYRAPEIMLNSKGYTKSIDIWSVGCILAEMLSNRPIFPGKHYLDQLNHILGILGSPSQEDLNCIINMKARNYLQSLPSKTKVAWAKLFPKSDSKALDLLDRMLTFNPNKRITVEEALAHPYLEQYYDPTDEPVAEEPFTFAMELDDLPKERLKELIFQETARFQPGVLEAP

[3] = target: Vascular endothelial growth factor receptor 2 (Homo sapiens, UniProt P35968); assay: Inhibition of VEGFR2 (unknown origin) at 25 nM using Poly(Glu, Tyr) as substrate by Kinase-Glo plus luminescent kinase assay
Sequence of Vascular endothelial growth factor receptor 2 (P35968 whole entry): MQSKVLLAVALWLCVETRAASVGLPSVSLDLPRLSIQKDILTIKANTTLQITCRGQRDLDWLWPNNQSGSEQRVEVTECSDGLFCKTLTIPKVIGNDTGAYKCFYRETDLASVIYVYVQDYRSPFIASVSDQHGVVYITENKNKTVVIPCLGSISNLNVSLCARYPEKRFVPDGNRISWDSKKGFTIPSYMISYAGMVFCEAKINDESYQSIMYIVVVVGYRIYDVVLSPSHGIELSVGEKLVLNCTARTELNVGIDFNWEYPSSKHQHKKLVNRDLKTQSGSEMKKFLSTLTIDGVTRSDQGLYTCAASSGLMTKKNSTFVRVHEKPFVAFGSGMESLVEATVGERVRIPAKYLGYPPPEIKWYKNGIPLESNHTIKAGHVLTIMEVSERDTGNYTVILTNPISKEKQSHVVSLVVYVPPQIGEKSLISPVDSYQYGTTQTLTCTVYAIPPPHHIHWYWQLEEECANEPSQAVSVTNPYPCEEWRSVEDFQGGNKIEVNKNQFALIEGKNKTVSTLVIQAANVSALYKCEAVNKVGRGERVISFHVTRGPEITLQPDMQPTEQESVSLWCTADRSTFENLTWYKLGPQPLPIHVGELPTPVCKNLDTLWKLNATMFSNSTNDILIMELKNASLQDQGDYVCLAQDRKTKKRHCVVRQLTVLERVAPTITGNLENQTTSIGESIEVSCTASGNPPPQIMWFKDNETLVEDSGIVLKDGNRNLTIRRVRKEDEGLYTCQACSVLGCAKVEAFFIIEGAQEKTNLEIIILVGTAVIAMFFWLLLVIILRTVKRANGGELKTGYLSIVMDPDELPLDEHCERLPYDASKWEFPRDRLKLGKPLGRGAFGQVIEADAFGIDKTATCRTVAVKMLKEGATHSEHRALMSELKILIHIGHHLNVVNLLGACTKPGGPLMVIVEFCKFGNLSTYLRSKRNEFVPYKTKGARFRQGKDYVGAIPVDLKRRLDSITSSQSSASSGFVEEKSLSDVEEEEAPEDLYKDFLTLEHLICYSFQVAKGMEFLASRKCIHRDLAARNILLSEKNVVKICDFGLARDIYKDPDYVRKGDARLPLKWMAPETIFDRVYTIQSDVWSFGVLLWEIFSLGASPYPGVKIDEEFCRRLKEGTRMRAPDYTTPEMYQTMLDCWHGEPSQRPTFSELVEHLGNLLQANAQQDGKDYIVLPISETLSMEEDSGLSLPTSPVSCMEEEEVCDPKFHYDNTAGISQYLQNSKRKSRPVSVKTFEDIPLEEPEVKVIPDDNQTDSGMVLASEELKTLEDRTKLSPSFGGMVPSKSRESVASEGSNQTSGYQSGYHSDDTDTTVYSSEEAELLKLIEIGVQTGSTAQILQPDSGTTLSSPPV

[4] = system: A549; assay: Antiproliferative activity against human A549 cells assessed as cell growth inhibition at 5 uM in presence of etoposide by CellTiter-Glo luminescent assay relative to control; format: functional; set-up: scale not given: the % may be the effect or the level left
[5] = system: A549; assay: Antiproliferative activity against human A549 cells assessed as cell growth inhibition at 5 uM in presence of doxorubicin by CellTiter-Glo luminescent assay relative to control; format: functional; set-up: scale not given: the % may be the effect or the level left
[6] = system: PC-3; assay: Antiproliferative activity against human PC-3 cells assessed as cell growth inhibition measured after 24 hrs by MTT assay; format: functional, cell-based; conditions: PC-3, 24 h

SMILES: Cn1ccc2c(Nc3ccc(Cl)cc3)nc(NC(=O)Nc3ccc(F)cc3)nc21
pIC50 [1]: 5.81

SMILES: Cc1cccc(NC(=O)Nc2ccc(Oc3ncnc4[nH]c(C)c(C)c34)cc2)c1
inhibition [2]: 50% | pIC50 [3]: 7.87

SMILES: COc1ccc(-c2nc3ccc(C(=O)Nc4cn(C)c(C(=O)Nc5cc(C(=O)NCCCN(C)C)n(CCCN)c5)n4)cc3[nH]2)cc1
Activity [4]: 50% | Activity [5]: 22%

SMILES: Cc1cccc(NC(=O)Nc2ccc(Nc3ncnc4[nH]c(C)c(C)c34)cc2)c1
inhibition [2]: 50% | pIC50 [3]: 7.92

The remaining lines, values ahead:

pIC50 [1]: 5.83
SMILES: Cn1ccc2c(Nc3cccc(Br)c3)nc(NC(=O)Nc3ccc(F)c(C(F)(F)F)c3)nc21

pIC50 [6]: 5.98
SMILES: Cn1ccc2c(Nc3cccc(Br)c3)nc(NC(=O)Nc3ccc(Cl)c(C(F)(F)F)c3)nc21

pIC50 [1]: 6.46
SMILES: Cn1ccc2c(Nc3ccc(F)c(Cl)c3)nc(NC(=O)Nc3cccc(C(F)(F)F)c3)nc21
